Literature values, collected in patent US10494360B2, “Inhibitors of indoleamine 2,3-dioxygenase” (NETHERLANDS TRANSLATIONAL RESEARCH CENTER B.V., priority 2016, dated 2019).

Experiments:
influenza virus = settings: influenza virus-infected mice; cited from earlier work
[1] = test system: IDO1 expressed in mouse tumor cells; settings: pre-immunized mice; Uyttenhove et al.; cited from earlier work
lung carcinoma = settings: syngeneic mouse lung carcinoma model and transgenic mouse model; cited from earlier work
[2] = test system: melanoma and glioblastoma; settings: mouse tumor models for melanoma and glioblastoma; cited from earlier work
Leishmania major = Leishmania major infection; cited from earlier work
IDO1 = IDO1 (Homo sapiens, UniProt P14902); set-up: Recombinant full-length IDO1 (Seegers, N., et al.) and all other assay components were diluted in IDO1 reaction buffer; made in house; settings: read-out: KM,Trp of IDO1 for L-tryptophan; cited from earlier work
Chain of IDO1 (P14902 whole entry, species assumed): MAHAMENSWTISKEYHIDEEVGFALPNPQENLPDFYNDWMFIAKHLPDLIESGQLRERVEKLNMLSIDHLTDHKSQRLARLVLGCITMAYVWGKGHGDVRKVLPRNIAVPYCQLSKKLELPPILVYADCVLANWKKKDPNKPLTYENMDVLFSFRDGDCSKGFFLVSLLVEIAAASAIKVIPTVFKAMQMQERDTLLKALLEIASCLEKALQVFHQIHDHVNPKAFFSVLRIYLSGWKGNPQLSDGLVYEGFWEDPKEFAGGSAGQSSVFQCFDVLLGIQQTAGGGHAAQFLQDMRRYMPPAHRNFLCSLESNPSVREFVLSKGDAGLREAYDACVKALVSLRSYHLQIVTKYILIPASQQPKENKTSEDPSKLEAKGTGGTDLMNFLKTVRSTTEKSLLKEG

TDO = TDO (Homo sapiens, UniProt P48775); settings: read-out: KM,Trp of TDO for L-tryptophan; cited from earlier work
Chain of TDO (P48775 whole entry, species assumed): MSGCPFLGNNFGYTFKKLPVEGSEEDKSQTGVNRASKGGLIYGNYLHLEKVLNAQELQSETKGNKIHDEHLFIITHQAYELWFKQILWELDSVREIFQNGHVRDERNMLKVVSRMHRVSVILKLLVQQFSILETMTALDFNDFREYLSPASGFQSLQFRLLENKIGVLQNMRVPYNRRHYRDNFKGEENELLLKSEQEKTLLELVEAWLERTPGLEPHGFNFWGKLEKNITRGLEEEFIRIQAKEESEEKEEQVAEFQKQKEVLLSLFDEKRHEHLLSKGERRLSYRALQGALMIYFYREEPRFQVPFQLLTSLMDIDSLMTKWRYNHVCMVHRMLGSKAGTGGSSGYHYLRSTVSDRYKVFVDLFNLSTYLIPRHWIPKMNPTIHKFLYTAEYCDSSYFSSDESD

Compound | T cell response against influenza virus (influenza virus) | reversal of IDO1-mediated prevention of tumor cell rejection [1] | efficacy of a cancer vaccine in combination (lung carcinoma) | efficacy of PD-1 and CTLA4 antibodies in combination [2] | parasite burden (Leishmania major) | Km (IDO1) [µM] | Km (TDO) [µM]
Cn1cc(C[C@H](N)C(=O)O)c2ccccc21 [Example 1-MT, 1-methyl-L-tryptophan] | enhanced T cell response against the virus | this effect could be reverted | increased the efficacy of a cancer vaccine | increased the efficacy of antibodies targeting the immune checkpoints PD-1 and CTLA4 | reduced the parasite burden |  | 
N[C@@H](Cc1c[nH]c2ccccc12)C(=O)O [L-tryptophan] |  |  |  |  |  | 6 | 190
